The results in this text go back to patent US8383084B2, “Destruction of spores through glycoconjugate enhanced phagocytosis” (priority 2006, dated 2013).

In data set [1] the test system is B. cereus spores. It counts as cell-based, Bacillus cereus ATCC 11778.
Data set [2] relates to murine macrophages. It counts as cell-based, C57BL/6 mice.
Data set [3] concerns murine macrophages. It counts as cell-based, C57BL/6 mice. The source holds these as a separate data set.
For data set [4], the system named is murine macrophages. The data set can be described thus: Comet assay (tail vs. head) and phagocyte diameter. The data set is classed as cell-based, C57BL/6 mice. The settings on record: for diameter of phagocytes upon uptaking glycoconjugate-coated spores: compared to macrophages only, spores only, glycoconjugate alone; for uptake of coated spores and spore-induced cell death: glycoconjugate-coated spores, B; for uptake of coated spores and spore-induced cell death / effect of glycoconjugate-treated spores on murine macrophages (Comet assay): FIG. 10A; for diameter of phagocytic cells, glycoconjugate alone: glycoconjugates alone, dilutions 10^0, 10^-2, 10^-4; for effect of glycoconjugate-treated spores on murine macrophages (Comet assay): macrophages exposed to treated spores, 10B; for effect of glycoconjugate alone on macrophages (Comet assay): macrophages treated with glycoconjugate only, FIG. 10E, 10F. Here is the method:
Possible induction of apoptosis was determined by Comet assay (FIG. 10) using Trevigen (Gaithersburg, Md.) Comet assay kit and analyzed under epifluorescence microscope (FIG. 10). Nuclei with damaged DNA have the appearance of a comet with a bright head and a tail, whereas nuclei with undamaged DNA appear round, with no tail. Ration tail vs. head was measured in order to determine apoptosis (FIG. 10).

Data set [5] deals with B. cereus spores. It counts as cell-based, Bacillus cereus ATCC 11778. The source holds these as a separate data set.
Another data set concerns human macrophages. It counts as cell-based.
In data set [6] the test system is murine macrophages.

Like-named read-outs stand apart in the source and are kept apart here.

“GalNAcα1-3 GalNAcβ-PAA-flu [GalNAcα1-3GalNAcβ-PAA-flu]”: in the data set on B. cereus spores [1], the destruction of spores was 86.4% and the “dose at which 50% of the spores were killed” value was determined as 100 pg/mL. This substance also returned an LDH release/production in the data set with murine macrophages [2] of 11.9%. In addition, in the data set with murine macrophages [3], the “induction of macrophage NO production” value is recorded as “induced macrophage NO production” and the “macrophage NO production (extent)” value was “less stimulatory”. Further, in the data set with murine macrophages [4], the “diameter of phagocytes upon uptaking glycoconjugate-coated spores” value is listed as “increased”; the “uptake of coated spores and spore-induced cell death” value was “stimulates the uptake of coated spores and protect from spore-induced cell death”; the “diameter of phagocytic cells, glycoconjugate alone” value is given as “do not affect the diameter of phagocytic cells”; the “effect of glycoconjugate-treated spores on murine macrophages (Comet assay)” value was “pro-apoptotic effects”. Also, in the data set with murine macrophages [4], the “effect of glycoconjugate alone on macrophages (Comet assay)” value was “do not induce death”. Besides, in the data set with B. cereus spores [5], the “destruction of spores, following spores' exposure” value is recorded as 76.4%; the “destruction of spores, prior to exposure” value was determined as 65.5%; the “destruction of the spores (in words)” value is given as “almost total destruction of the spores”; the “spores killed, following exposure condition” value is recorded as about 50%. Besides, the “spores killed, prior to and during exposure conditions” value in the data set on B. cereus spores [5] is reported as 70-80%. The “human macrophage NO production” value in the data set with human macrophages was “stimulate human macrophage nitric oxide (NO) production”. The macrophage viability entry in the data set on murine macrophages [6] is recorded as “up to 87%”.

On to “Galα1-3 GalNAcα-PAA-flu [Galα1-3GalNAcα-PAA-flu]”, for which, in the data set with B. cereus spores [1], the destruction of spores stood at 89.4%, the “destruction of the spores (in words)” value was “almost total destruction of the spores” and the “dose at which 50% of the spores were killed” value came to 1 pg/mL. In addition, in the data set on murine macrophages [2], the LDH release/production is listed as 8.9%. Also, in the data set on murine macrophages [3], the “induction of macrophage NO production” value is given as “induced macrophage NO production” and the “macrophage NO production (extent)” value was “doubled”. In the data set on murine macrophages [4], the “diameter of phagocytes upon uptaking glycoconjugate-coated spores” value is on record as “increased”; the “uptake of coated spores and spore-induced cell death” value is “stimulates the uptake of coated spores and protect from spore-induced cell death”; the “diameter of phagocytic cells, glycoconjugate alone” value is on record as “do not affect the diameter of phagocytic cells”; the “effect of glycoconjugate-treated spores on murine macrophages (Comet assay)” value is on record as “pro-apoptotic effects”. The “effect of glycoconjugate alone on macrophages (Comet assay)” value in the data set with murine macrophages [4] is “do not induce death”. In the data set with murine macrophages [6], the macrophage viability is on record as at most 97.8%.
